Experimental findings from patent US20260209215A1, “GLYCINE DERIVATIVES WITH P2X4 RECEPTOR-BLOCKING ACTIVITY AS DIAGNOSTICS AND FOR THE TREATMENT OF PAIN, INFLAMMATION, CANCER, AND OTHER P2X4 RECEPTOR-RELATED DISEASES” (RHEINISCHE-FRIEDRICH-WILHELMS-UNIVERSITÄT BONN, priority 2022, published 2026) are described below.

Bounds are passed on as bounds.

The target of this assay is T1, P2X4 receptor (Homo sapiens, UniProt Q99571).
T1 construct: expressed in transfected cells; host or cells: 1321N1 astrocytoma cells, retroviral vector pQCXIN, G418 selection, monoclones
T1 sequence (Q99571 1-388): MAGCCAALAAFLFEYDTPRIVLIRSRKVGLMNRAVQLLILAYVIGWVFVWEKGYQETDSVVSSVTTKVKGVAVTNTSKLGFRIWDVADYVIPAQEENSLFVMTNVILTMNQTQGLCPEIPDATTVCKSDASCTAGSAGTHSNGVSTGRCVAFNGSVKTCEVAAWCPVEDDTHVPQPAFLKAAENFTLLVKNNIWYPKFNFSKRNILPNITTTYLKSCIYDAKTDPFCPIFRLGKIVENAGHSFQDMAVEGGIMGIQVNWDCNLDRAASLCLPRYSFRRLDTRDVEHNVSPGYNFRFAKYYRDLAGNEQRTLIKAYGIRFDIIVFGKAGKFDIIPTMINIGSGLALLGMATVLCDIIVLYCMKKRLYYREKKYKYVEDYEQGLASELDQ
The experiment in a line: Measurement of Ca2+ influx in transfected 1321N1 astrocytoma cells (P2X4 inhibitory potency). The format is cell-based. Conditions: agonist-mediated Ca2+ influx, FLUO-4, 1321N1 astrocytoma cells; antagonists added 30 min before agonist. From the text:
The rat, mouse, and human P2X4 DNA, respectively, were cloned into the retroviral vector pQCXIN. 1321N1 Astrocytoma cells were transfected with the DNA using a retroviral system as described previously. In brief, GP+envAM12 packaging cells were first transiently co-transfected with a retroviral vector to generate the retrovirus and with a vesicular stomatitis virus G protein (VSV-G) to pseudotype the virus and to increase their infection efficiency. The viruses containing the rat, mouse or human P2X4 receptor sequence were then used to create a stable astrocytoma cell line. P2X4 receptor-expressing cells were selected with G418 ([…]).
The selection of monoclones for rat and human P2X4 receptors was performed using the limited dilution method by plating the cells at very low cell densities (1 cell clone per well in 96-well plates). Cells were counted, and then several dilutions were made to obtain a concentration of […]. We subsequently added 100 µL of the diluted cell suspension into each well expecting to obtain on average 1 cell per well. After a few days the wells that contained single clones were labeled and transferred into 24 well plates. More than 20 clones were selected for each cell line and characterized in calcium influx assay.
Measurement of Ca^2+ influx in transfected 1321N1 astrocytoma cells
P2X receptor function was determined on the basis of agonist-mediated increases in cytosolic Ca^2+ concentration. The fluorescent Ca^2+chelating dye FLUO-4 was used as an indicator of the relative levels of intracellular Ca^2+ in a 96-well format using a fluorescence imaging plate reader (Novostar, BMG, Germany). Cells were grown to confluence in 96-well black-walled tissue culture plates and loaded with FLUO-4 AM ([…]) in Hank's balanced salt solution (HBSS, containing 10 mM HEPES, pH 7.3, and 1% Pluronic® F127) for 1 h at 23° C. After incubation, the loaded cells were washed with the same buffer to remove extracellular FLUO-4 AM. Compound solutions were prepared in HBSS (containing 20 mM HEPES, pH 7.3) or DMSO depending on their solubility. […] Fluorescence intensity was measured at 520 nm for 30 s at 0.4 s intervals. Buffer or test compounds were injected sequentially into separate wells using the automatic pipetting device. At least three independent experiments were performed in triplicate or duplicate. Antagonists were added 30 min before the addition of agonists. The assays were performed in a final volume of 200 μL. Compounds were tested at 7-8 different concentrations spanning three orders of magnitude of concentrations. Statistical significances were calculated using the unpaired two-tailed t-test.
Turning to `CCc1nsc(-c2ccc(F)c(NCC(=O)N3CCc4c(N5CCC(O)C5)cccc43)c2)n1` (centres unmarked) [Example 71, 2-((5-(3-ethyl-1,2,4-thiadiazol-5-yl)-2-fluorophenyl)amino)-1-(4-(3-hydroxypyrrolidin-1-yl)indolin-1-yl)ethan-1-one], the IC50 lay in the range of 0.1 to 19 nM.

Take `Cc1nsc(-c2ccc(C)c(NCC(=O)N3CCc4c(N)cccc43)c2)n1` [Example 74, 1-(4-aminoindolin-1-yl)-2-((2-methyl-5-(3-methyl-1,2,4-thiadiazol-5-yl)phenyl)amino)ethan-1-one]: the IC50 lay in the range of 20 to 39 nM.

`Cc1ccc(-c2ccc(C3CC3)cn2)cc1NCC(=O)N1CCc2c(OCC(C)(C)O)cccc21` [Example 114, 2-((5-(5-cyclopropyl-pyridin-2-yl)-2-methyl-phenyl)amino)-1-(4-(2-hydroxy-2-methyl-propoxy)indolin-1-yl) ethan-1-one] showed an IC50 of 40 to 69 nM.

The compound `Cc1nsc(-c2ccc(C)c(NCC(=O)N3CCc4c3cccc4S(N)(=O)=O)c2)n1` [Example 51, 1-((2-methyl-5-(3-methyl-1,2,4-thiadiazol-5-yl)phenyl)glycyl)-indoline-4-sulfonamide] returned an IC50 of 40 to 69 nM.

`Cc1nsc(-c2ccc(C)c(NCC(=O)N3CCc4c3cccc4[C@](C)(O)CO)c2)n1` [Example 65, 1-(4-(1,2-dihydroxypropan-2-yl)indolin-1-yl)-2-((2-methyl-5-(3-methyl-1,2,4-thiadiazol-5-yl)phenyl)amino)ethan-1-one] returned a 50% inhibitory concentration (IC50) of 0.1 to 19 nM.

`Cc1nsc(-c2ccc(C)c(NCC(=O)N3CCc4c(NS(C)(=O)=O)cccc43)c2)n1` [Example 46, N-(1-((2-methyl-5-(3-methyl-1,2,4-thiadiazol-5-yl)phenyl)glycyl)indolin-4-yl)methanesulfonamide]: the IC50 lay within 20 to 39 nM.

`Cc1nsc(-c2ccc(C)c(NCC(=O)N3CCc4c3cccc4N3CC(=O)NC3=O)c2)n1` [Example 54, 1-(1-((2-methyl-5-(3-methyl-1,2,4-thiadiazol-5-yl)phenyl)glycyl)indolin-4-yl) imidazolidine-2,4-dione] yielded an IC50 of 70 to 99 nM.

`COc1ccc(-c2nc(C)ns2)cc1NCC(=O)c1c[nH]c2c3c(ccc12)CCC3` [Example 104, 2-((2-methoxy-5-(3-methyl-1,2,4-thiadiazol-5-yl)phenyl)amino)-1-(1,6,7,8-tetrahydrocyclopenta[g]indol-3-yl)ethan-1-one] yielded an IC50 of 20 to 39 nM.

For `CCc1nsc(-c2ccc(C)c(NCC(=O)N3CCc4c(O)cccc43)c2)n1` [Example 84, 2-((5-(3-ethyl-1,2,4-thiadiazol-5-yl)-2-methylphenyl)amino)-1-(4-hydroxyindolin-1-yl) ethan-1-one], the IC50 lay within 0.1 to 19 nM.

As for `CNC(=O)C1CN(C(=O)CNc2cc(-c3nc(C)ns3)ccc2C)c2ccccc21` (centres unmarked) [Example 59, N-methyl-1-((2-methyl-5-(3-methyl-1,2,4-thiadiazol-5-yl)phenyl)glycyl) indoline-3-carboxamide], the IC50 is greater than 100 nM.

In the case of `COc1ccc(-c2cc(C)c(C)cn2)cc1NCC(=O)N1CCc2c(O)cccc21` [Example 121, 2-((5-(4,5-dimethyl-pyridin-2-yl)-2-methoxyphenyl)amino)-1-(4-hydroxyindolin-1-yl) ethan-1-one], the IC50 is greater than 100 nM.

In the case of `CCn1nnc(-c2ccc(OC)c(NCC(=O)N3CCc4c(OC)cccc43)c2)n1` [Example 5, 2-((5-(2-ethyl-2H-tetrazol-5-yl)-2-methoxyphenyl)amino)-1-(4-methoxyindolin-1-yl)ethan-1-one], the concentration for half-maximal inhibition (IC50) fell in the range of 20 to 39 nM.

As for `Cc1noc(-c2ccc(C)c(NCC(=O)N3CCc4c(O)cccc43)c2)n1` [Example 86, 1-(4-hydroxyindolin-1-yl)-2-((2-methyl-5-(3-methyl-1,2,4-oxadiazol-5-yl)phenyl)amino)-ethan-1-one], the half-inhibitory concentration (IC50) is 40 to 69 nM.

Regarding `COc1ccc(-c2nc(C)ns2)cc1NCC(=O)n1ccc2cc(F)ccc21` [Example 6, 1-(5-fluoro-1H-indol-1-yl)-2-((2-methoxy-5-(3-methyl-1,2,4-thiadiazol-5-yl)phenyl)amino-) ethan-1-one], the IC50 was in the range of 70 to 99 nM.

As for `Cc1nsc(-c2ccc(C)c(NCC(=O)N3CCc4c(OCC(C)(C)O)cccc43)c2)n1` [Example 12, 1-(4-(2-hydroxy-2-methylpropoxy)indolin-1-yl)-2-((2-methyl-5-(3-methyl-1,2,4-thiadiazol-5-yl)phenyl)amino)], the IC50 lay within 0.1 to 19 nM.

As for `Cc1ccc(-c2ccc(C)c(NCC(=O)N3CCc4c(CO)cccc43)c2)o1` [Example 28, 1-(4-(hydroxymethyl)indolin-1-yl)-2-((2-methyl-5-(5-methylfuran-2-yl)phenyl)amino)ethan-1-one], the IC50 lay in the range of 0.1 to 19 nM.

Take `Cc1ccc(-c2ccc(C)c(NCC(=O)N3CCc4c3cccc4N3C4CCC3CC(O)C4)c2)o1` (centres unmarked) [Example 36, 1-(4-(3-hydroxy-8-azabicyclo[3.2.1]octan-8-yl)indolin-1-yl)-2-((2-methyl-5-(5-methylfuran-2-yl)phenyl)amino)ethan-1-one]: the IC50 lay in the range of 20 to 39 nM.

`Cc1nsc(-c2ccc(C)c(NCC(=O)N3CCc4c3cccc4N3C(=O)CC(N)C3=O)c2)n1` (centres unmarked) [Example 80, 3-amino-1-(1-((2-methyl-5-(3-methyl-1,2,4-thiadiazol-5-yl)phenyl)glycyl)indolin-4-yl) pyrrolidine-2,5-dione]: the IC50 was in the range of 0.1 to 19 nM.

Turning to `COc1cccc2c1CCN2C(=O)CNc1cc(-c2nc(C)ns2)ccc1C` [Example 1, 1-(4-methoxyindolin-1-yl)-2-((2-methyl-5-(3-methyl-1,2,4-thiadiazol-5-yl)phenyl)-amino)ethan-1-one], the half-inhibitory concentration (IC50) fell in the range of 0.1 to 19 nM.

Consider `Cc1nsc(-c2ccc(C)c(NCC(=O)N3CCc4c3cccc4N3C(=O)C=CC3=O)c2)n1` [Example 79, 1-(1-((2-methyl-5-(3-methyl-1,2,4-thiadiazol-5-yl)phenyl)-glycyl)indolin-4-yl)-1H-pyrrole-2,5-dione], for which the IC50 lay within 0.1 to 19 nM.

`CCc1nsc(-c2ccc(C)c(NCC(=O)N3CCc4c3cccc4-n3ccnc3)c2)n1` [Example 35, 1-(4-(1H-imidazol-1-yl)indolin-1-yl)-2-((5-(3-ethyl-1,2,4-thiadiazol-5-yl)-2-methyl-phenyl)amino)ethan-1-one] came in with an IC50 of 20 to 39 nM.

For `COc1ccc(-c2nc(C)ns2)cc1NCC(=O)c1c[nH]c2c(OC)cccc12` [Example 93, 1-(7-methoxy-1H-indol-3-yl)-2-((2-methoxy-5-(3-methyl-1,2,4-thiadiazol-5-yl)phenyl)-amino)ethan-1-one], the IC50 was 0.1 to 19 nM.

`CCc1noc(-c2ccc(OC)c(NCC(=O)N3CCc4ccc(Br)cc43)c2)n1` [Example 9, 1-(6-bromoindolin-1-yl)-2-((5-(3-ethyl-1,2,4-oxadiazol-5-yl)-2-methoxyphenyl)amino) ethan-1-one] registered an IC50 of 40 to 69 nM.

As for `Cc1nsc(-c2ccc(C)c(NCC(=O)N3CCc4c3cccc4[C@@](C)(O)CO)c2)n1` [Example 64, 1-(4-(1,2-dihydroxypropan-2-yl)indolin-1-yl)-2-((2-methyl-5-(3-methyl-1,2,4-thiadiazol-5-yl)phenyl)amino)ethan-1-one], the IC50 lay in the range of 0.1 to 19 nM.

Take `CCc1nsc(-c2ccc(C)c(NCC(=O)N3CCc4c(OCCOCCO)cccc43)c2)n1` [Example 19, 2-((5-(3-ethyl-1,2,4-thiadiazol-5-yl)-2-methylphenyl)amino)-1-(4-(2-(2-hydroxyethoxy)ethoxy)indolin-1-yl)ethan-1-one]: the IC50 is 0.1 to 19 nM.

The compound `Cc1noc(-c2ccc(F)c(NCC(=O)N3CCc4c3cccc4C(C)(C)O)c2)n1` [Example 53, 2-((2-fluoro-5-(3-methyl-1,2,4-oxadiazol-5-yl)phenyl)amino)-1-(4-(2-hydroxypropan-2-yl)-indolin-1-yl)ethan-1-one] registered a half-maximal inhibitory concentration (IC50) of 20 to 39 nM.
